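Step 1: Grow cells in 96-well plates. Step 2: Expose to compound for 48 hours at 5 concentrations. Step 3: Interpolate endpoints linearly; if unreached, use highest concentration. Abbreviation: GI50, concentration required for 50% inhibition of growth. Definition used: TGI = concentration required for complete inhibition of growth.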
How the values were obtained:
Test in all cases: inhibition of tumour cell growth, NCI panel, 48 h
HCT-116 colon = system: HCT-116 colon
HCT-15 colon = system: HCT-15 colon
HCC-2998 colon = system: HCC-2998 colon
A498 renal = system: A498 renal
NCI-H23 lung = system: NCI-H23 lung
OVCAR-5 ovarian = system: OVCAR-5 ovarian
SN12C renal = system: SN12C renal
HT29 colon = system: HT29 colon

| SMILES | TGI (HCT-116 colon) [µM] | TGI (HCT-15 colon) [µM] | TGI (HCC-2998 colon) [µM] | TGI (A498 renal) [µM] | TGI (NCI-H23 lung) [µM] | TGI (OVCAR-5 ovarian) [µM] | TGI (SN12C renal) [µM] | TGI (HT29 colon) [µM] | GI50 (HCT-116 colon) [µM] | GI50 (NCI-H23 lung) [µM] | GI50 (HT29 colon) [µM] |
| --- | --- | --- | --- | --- | --- | --- | --- | --- | --- | --- | --- |
| C=CCOC(C)(C)C1=CCC(C)CC1 (stereo not drawn) | > 100 | > 100 | > 100 | > 100 | > 100 | > 100 | > 100 | > 100 | – | – | – |
| COc1cc(C=O)cc(C=Nc2ccc(Br)cc2)c1O | > 100 | > 100 | 38.9 | 40.7 | > 100 | > 100 | 32.7 | > 100 | – | – | – |
| CC(C)Oc1cccc(N2C(CCc3c[nH]c4ccc(Br)cc34)=NS(=O)(=O)c3cnccc32)c1 | > 100 | > 100 | > 100 | > 100 | > 100 | > 100 | > 100 | > 100 | – | – | – |
| O=c1c2ccc(Cl)cc2oc2c(CSc3ccccc3)cccc12 | > 100 | > 100 | > 100 | > 79.1 | > 87.6 | > 100 | > 100 | > 100 | – | – | – |
| COc1cc2c(cc1O)NC(=O)[C@@H]1C[C@@H](O)CN1C2=O | > 100 | > 100 | > 100 | > 100 | > 100 | > 100 | > 100 | > 100 | – | – | – |
| O=C(N/N=C/c1ccccc1)c1c(F)c(F)c(F)c(F)c1F | > 100 | > 100 | > 100 | > 100 | > 100 | > 100 | > 100 | > 100 | – | – | – |
| CN(C)c1cccc2c(S(=O)(=O)NCCN)cccc12 | > 100 | > 100 | > 100 | 69.8 | > 100 | > 100 | > 100 | > 100 | – | – | – |
| BrC1(c2ccccc2)C[n+]2c(-c3ccccc3)cc(-c3ccccc3)cc2-c2ccccc21 (stereo not drawn) | 8.32 | 12 | 0.742 | 9.32 | 34.5 | 4.1 | 16.7 | 3.46 | – | – | – |
| CC1(C)C(=O)/C(=C/c2ccccc2)C(C)(C)C1(C)C | > 100 | > 100 | > 100 | > 96.2 | > 100 | > 100 | > 100 | > 100 | – | – | – |
| C/C(=N/NC(=S)Nc1ccc(C)cc1)c1ccccn1 | 13 | 17.6 | 18.6 | 15.9 | 16.1 | 9.55 | 7.65 | 19.4 | – | – | – |
| COc1ccc(C2C(=O)c3ccc(OC)cc3OC2c2cccnc2)cc1 (stereo not drawn) | > 100 | > 100 | > 100 | > 100 | > 100 | > 100 | > 100 | > 100 | – | – | – |
| CC1=NC(=N)N=C(C)C1N=Nc1ccc2nc(C)[nH]c2c1 (stereo not drawn) | > 100 | > 100 | > 100 | > 100 | > 100 | > 100 | > 100 | > 100 | – | – | – |
| CC(=O)c1c(-c2ccc(Cl)cc2)c(C#N)c(=S)n(C2OC(CO)C(O)C(O)C2O)c1C (stereo not drawn) | > 100 | > 100 | > 100 | > 100 | > 100 | > 100 | > 100 | > 100 | – | – | – |
| COc1ccc(O[C@H](CO)C[C@@H]2COC(C)(C)O2)cc1 | > 100 | > 100 | > 100 | > 100 | > 100 | > 100 | > 100 | > 100 | – | – | – |
| CC(C)CNP(=O)(NCC(C)C)Oc1ccc(CC(NC(=O)OCc2ccccc2)C(=O)OCc2ccccc2)cc1 (stereo not drawn) | 37.6 | 89.6 | 30.7 | 50.8 | 32.3 | > 100 | 39.9 | 33.4 | – | – | – |
| CC[C@]1(c2ccc3c(c2)OCO3)C=[N+]([O-])O[C@H](OC2CCCC2(c2ccccc2)c2ccccc2)[C@@H]1OC(C)=O (stereo partly drawn) | 3.67 | 6.18 | 4.05 | 2.94 | 8.68 | > 28.3 | > 22.3 | 3.78 | – | – | – |
| CCc1c(O)nc(Nc2nc3ccccc3[nH]2)[nH]c1=O | > 100 | > 100 | > 100 | > 100 | > 100 | > 100 | > 100 | > 100 | – | – | – |
| O=C(Nc1cccc2ccccc12)c1cc2ccccc2oc1=O | > 100 | > 100 | > 100 | > 100 | > 100 | > 100 | > 100 | > 100 | – | – | – |
| COc1cccc(/C=N/[N-]C(N)=O)c1[O-].[Cu+2].[OH3+] | 15.9 | 27.2 | 31 | 32.2 | 21.9 | 32.6 | 27.2 | 21.3 | 4.09 | 9.7 | 9.17 |
| Cc1ccc(S(=O)(=O)N/N=c2/sc3ccccc3n2C)cc1 | > 100 | > 100 | > 100 | > 100 | > 100 | > 100 | > 100 | > 100 | – | – | – |

Source: PubChem BioAssay (NCI)
